From patent US10577361B2, “Dopamine D3 receptor antagonists having a morpholine moiety” (Indivior UK Limited, priority 2015, dated 2020)

Assays:
[1] = target: human dopamine receptor type 2, long variant (hD2L) (Homo sapiens (Human), UniProt P14416); assay: [3H]-Spiperone binding assay at hD2 recombinant receptor (CHO-Gα16-hD2L membranes)
Procedure: [^3H]-Spiperone Binding Assay at hD2 Recombinant Receptor CHO cells stably expressing human dopamine receptor type 2, long variant (hD2L), coupled to Gα16 protein (CHO-Gα16-hD2L) were re-suspended in 20 mM HEPES, 2 mM EDTA (pH 7.4), homogenised and centrifuged at 40,000 g (20 min, 4° C.). After re-suspension, homogenization and centrifugation as above, the final pellet was re-suspended in 20 mM HEPES, 100 mM NaCl, 10 mM MgCl2, 1 mM EDTA (pH 7.4) and aliquots were kept at −80° C. [^3H]-Spiperone Binding experiments were performed in 96 deep-well polypropylene plates in 50 mM Tris/HCl, 120 mM NaCl, 5 mM KCl, 5 mM MgCl2 (pH 7.4). […] Displacement was performed in the presence of 0.08 nM [^3H]-Spiperone. The reaction was initiated by the addition of membrane suspension (2 μg of protein for CHO-hD2 membranes) and lasted for 120 min at 23° C. in a final volume of 1000 μl. Non specific binding (NSB) was determined in the presence of 0.1 μM Spiperone. The binding reaction was stopped by rapid filtration through GF/B filterplates pre-soaked in 0.5% polyetylenimmine (PEI) using a Packard cell harvester. After washing with ice-cold 0.9% NaCl, the plate was left to dry before the addition of Microscint 20 (50 μl/well, PerkinElmer). Radioactivity was counted with a TopCount (PerkinElmer). […] Saturation binding experiments were performed similar to the competition binding experiments using a radioligand concentrations ranging from 0.011 to 3.0 nM. […] Is Clozapine selective for the dopamine D4 receptor? […] Real-time analysis of dopamine: antagonist interactions at recombinant human D2long receptor upon modulation of its activation state. Brit. J.

[2] = target: human dopamine type 3 receptor (hD3) (Homo sapiens (Human), UniProt P35462); assay: [3H]-Spiperone binding assay at hD3 recombinant receptor (CHO-hD3 membranes); conditions: pKi only estimated to be accurate to about ±0.3-0.5
human dopamine type 3 receptor (hD3), sequence (P35462 whole entry): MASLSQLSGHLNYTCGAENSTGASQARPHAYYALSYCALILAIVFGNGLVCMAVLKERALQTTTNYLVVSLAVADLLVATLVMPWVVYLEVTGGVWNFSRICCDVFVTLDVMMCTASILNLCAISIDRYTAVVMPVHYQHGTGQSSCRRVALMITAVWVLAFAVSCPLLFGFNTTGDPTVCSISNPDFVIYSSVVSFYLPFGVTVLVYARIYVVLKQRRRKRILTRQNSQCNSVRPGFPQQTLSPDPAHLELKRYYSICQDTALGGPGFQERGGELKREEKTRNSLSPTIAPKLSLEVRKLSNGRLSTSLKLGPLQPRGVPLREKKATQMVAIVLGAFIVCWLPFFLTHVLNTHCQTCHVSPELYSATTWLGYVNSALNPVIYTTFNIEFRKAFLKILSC
Procedure: [^3H]-Spiperone Binding Assay at hD3 and hD4 recombinant receptors CHO cells transiently transfected with human dopamine type 3 or 4 receptors (CHO-hD3 or CHO-hD4, respectively), were re-suspended in 20 mM HEPES, 2 mM EDTA (pH 7.4), homogenised and centrifuged at 40,000 g (20 min, 4° C.). After re-suspension, homogenization and centrifugation as above, the final pellet was re-suspended in 20 mM HEPES, 100 mM NaCl, 10 mM MgCl2, 1 mM EDTA (pH 7.4) and aliquots were kept at −80° C. [^3H]-Spiperone Binding experiments were performed in 96 deep-well polypropylene plates in 50 mM Tris/HCl, 120 mM NaCl, 5 mM KCl, 5 mM MgCl2 (pH 7.4). Compounds of invention were serially diluted in DMSO at 100 fold final concentrations in the assay (1% DMSO final in the assay). Displacement was performed in the presence of 0.3 nM [^3H]-Spiperone. The reaction was initiated by the addition of membrane suspension (4 μg and 12 μg of protein for CHO-hD3- and CHO-hD4 membranes, respectively) and lasted for 90 or 100 min (for hD3 or hD4 membranes, respectively) at 23° C. in a final volume of 500 μl. Non specific binding (NSB) was determined in the presence of 1 μM Spiperone. The binding reaction was stopped by rapid filtration through GF/B filterplates pre-soaked in 0.5% polyetylenimmine (PEI) using a Packard cell harvester. After washing with ice-cold 0.9% NaCl, the plate was left to dry before the addition of Microscint 20 ([…], PerkinElmer). Radioactivity was counted with a TopCount (PerkinElmer). Data were analysed by non-linear regression analysis using GraphPad Prism 5.0 (GraphPad Software). Saturation binding experiments were performed similar to the competition binding experiments using a radioligand concentrations ranging from 0.015 to 4.0 nM. […] Characterization of the human dopamine D3 receptor expressed in transfected cell lines.

Structure (SMILES) | D2 p Ki [1] | D3 p Ki [2]
Cn1c(SCCCN2CCOC(c3ccc(C(F)(F)F)cc3)C2)nnc1-c1ccc(C(N)=O)cc1 (single isomer, unassigned) [Example 13, 4-[4-methyl-5-({3-[(2R or 2S)-2-[4-(trifluoromethyl)phenyl]morpholin-4-yl]propyl}sulfanyl)-4H-1,2,4-triazol-3-yl]benzamide] | 4.86 | 7.94
Cn1c(SCCCN2CCOC(c3ccc(C(F)(F)F)cc3)C2)nnc1-c1ccc(-c2ncco2)cc1 (single isomer, unassigned) [Example 15, (2S or 2R)-4-[3-({4-methyl-5-[4-(1,3-oxazol-2-yl)phenyl]-4H-1,2,4-triazol-3-yl}sulfanyl)propyl]-2-[4-(trifluoromethyl)phenyl]morpholine] | 4.81 | 6.36
Cn1c(SCCCN2CCOC(c3ccc(C(F)(F)F)cc3)C2)nnc1-c1ccc(-c2ncco2)cc1 (single isomer, unassigned) [Example 16, (2R or 2S)-4-[3-({4-methyl-5-[4-(1,3-oxazol-2-yl)phenyl]-4H-1,2,4-triazol-3-yl}sulfanyl)propyl]-2-[4-(trifluoromethyl)phenyl]morpholine] | 5.28 | 8.23
Cn1c(SCCCN2CCOC(c3ccc(C(F)(F)F)cc3)C2)nnc1-c1ccc(C(N)=O)cc1 (stereo not drawn) [Example 11, 4-{4-methyl-5-[(3-{2-[4-(trifluoromethyl)phenyl]-morpholin-4-yl}propyl)sulfanyl]-4H-1,2,4-triazol-3-yl}benzamide] | 4.96 | 7.46
Cn1c(SCCCN2CCOC(c3ccc(C(F)(F)F)cc3)C2)nnc1-c1ccc(-c2ncco2)cc1 (stereo not drawn) [Example 14, 4-[3-({4-methyl-5-[4-(1,3-oxazol-2-yl)phenyl]-4H-1,2,4-triazol-3-yl}sulfanyl)propyl]-2-[4-(trifluoromethyl)phenyl]morpholine] | 5.83 | 8.31
Cn1c(SCCCN2CCOC(c3ccc(C(F)(F)F)cc3)C2)nnc1-c1cccnc1 (stereo not drawn) [Example 18, 4-(3-{[4-methyl-5-(pyridin-3-yl)-4H-1,2,4-triazol-3-yl]sulfanyl}propyl)-2-[4-(trifluoromethyl)phenyl]morpholine] | 4.83 | 6.77
Cn1c(SCCCN2CCOC(c3ccc(C(F)(F)F)cc3)C2)nnc1-c1cnccn1 (stereo not drawn) [Example 19, 4-(3-{[4-methyl-5-(pyrazin-2-yl)-4H-1,2,4-triazol-3-yl]sulfanyl}propyl)-2-[4-(trifluoromethyl)phenyl]morpholine] | – | 6.76
Cn1c(SCCCN2CCOC(c3ccc(C(F)(F)F)cc3)C2)nnc1-c1ccc(C(N)=O)nc1 (stereo not drawn) [Example 20, 5-{4-methyl-5-[(3-{2-[4-(trifluoromethyl)phenyl]morpholin-4-yl}propyl)sulfanyl]-4H-1,2,4-triazol-3-yl}pyridine-2-carboxamide] | – | 7.45
Cn1c(SCCCN2CCOC(c3ccc(C(F)(F)F)cc3)C2)nnc1-c1ccc(-n2cnnc2)cc1 (stereo not drawn) [Example 21, 4-[3-({4-methyl-5-[4-(4H-1,2,4-triazol-4-yl)phenyl]-4H-1,2,4-triazol-3-yl}sulfanyl)propyl]-2-[4-(trifluoromethyl)phenyl]morpholine] | 5.04 | 6.9
Cn1c(SCCCN2CCOC(c3ccc(C(F)(F)F)cc3)C2)nnc1-c1ccc(C(N)=O)cn1 (stereo not drawn) [Example 22, 6-{4-methyl-5-[(3-{2-[4-(trifluoromethyl)phenyl]morpholin-4-yl}propyl)sulfanyl]-4H-1,2,4-triazol-3-yl}pyridine-3-carboxamide] | 4.79 | 7
Cn1c(SCCCN2CCOC(c3ccc(C(F)(F)F)cc3)C2)nnc1-c1cccc(C(N)=O)c1 (stereo not drawn) [Example 23, 3-{4-methyl-5-[(3-{2-[4-(trifluoromethyl)phenyl]morpholin-4-yl}propyl)sulfanyl]-4H-1,2,4-triazol-3-yl}benzamide] | 4.82 | 6.53
Cn1cccc1-c1nnc(SCCCN2CCOC(c3ccc(C(F)(F)F)cc3)C2)n1C (stereo not drawn) [Example 24] | 5.18 | 6.9
Cn1c(SCCCN2CCOC(c3ccc(C(F)(F)F)cc3)C2)nnc1C1CCCCC1 (stereo not drawn) [Example 25, 4-{3-[(5-cyclohexyl-4-methyl-4H-1,2,4-triazol-3-yl)sulfanyl]propyl}-2-[4-(trifluoromethyl)phenyl]morpholine] | 5.05 | 7.36
Cn1c(SCCCN2CCOC(c3ccc(C(F)(F)F)cc3)C2)nnc1-c1nccs1 (stereo not drawn) [Example 26, 4-(3-{[4-methyl-5-(1,3-thiazol-2-yl)-4H-1,2,4-triazol-3-yl]sulfanyl}propyl)-2-[4-(trifluoromethyl)phenyl]morpholine] | 5.14 | 6.55
Cn1nccc1-c1nnc(SCCCN2CCOC(c3ccc(C(F)(F)F)cc3)C2)n1C (stereo not drawn) [Example 27, 4-(3-{[4-methyl-5-(1-methyl-1H-pyrazol-5-yl)-4H-1,2,4-triazol-3-yl]sulfanyl}propyl)-2-[4-(trifluoromethyl)phenyl]morpholine] | <5 | 6.16
Cn1c(SCCCN2CCOC(c3ccc(C(F)(F)F)cc3)C2)nnc1-c1ccsc1 (stereo not drawn) [Example 28] | 5.06 | 6.95
Cn1c(SCCCN2CCOC(c3ccc(C(F)(F)F)cc3)C2)nnc1-c1ccc(-c2nnco2)cc1 (stereo not drawn) [Example 29, 4-[3-({4-methyl-5-[4-(1,3,4-oxadiazol-2-yl)phenyl]-4H-1,2,4-triazol-3-yl}sulfanyl)propyl]-2-[4-(trifluoromethyl)phenyl]morpholine] | 4.91 | 7.79
Cc1nc(-c2ccc(-c3nnc(SCCCN4CCOC(c5ccc(C(F)(F)F)cc5)C4)n3C)cc2)no1 (stereo not drawn) [Example 30, 4-[3-({4-methyl-5-[4-(5-methyl-1,2,4-oxadiazol-3-yl)phenyl]-4H-1,2,4-triazol-3-yl}sulfanyl)propyl]-2-[4-(trifluoromethyl)phenyl]morpholine] | <5 | 7.63
Cn1c(SCCCN2CCOC(c3ccc(C(F)(F)F)cc3)C2)nnc1-c1ccc(C#N)cc1 (stereo not drawn) [Example 31, 4-{4-methyl-5-[(3-{2-[4-(trifluoromethyl)phenyl]morpholin-4-yl}propyl)sulfanyl]-4H-1,2,4-triazol-3-yl}benzonitrile] | 4.95 | 6.97
Cn1c(SCCCN2CCOC(c3ccc(C(F)(F)F)cc3F)C2)nnc1-c1ccc(C(N)=O)cc1 (stereo not drawn) [Example 35] | – | 7.06
Cc1ccc(C2CN(CCCSc3nnc(-c4ocnc4C)n3C)CCO2)cc1 (stereo not drawn) [Example 36, 4-(3-{[4-methyl-5-(4-methyl-1,3-oxazol-5-yl)-4H-1,2,4-triazol-3-yl]sulfanyl}propyl)-2-(4-methylphenyl)morpholine] | – | 6.17
Cc1ncoc1-c1nnc(SCCCN2CCOC(c3ccc(Br)cc3)C2)n1C (stereo not drawn) [Example 38, 2-(4-bromophenyl)-4-(3-{[4-methyl-5-(4-methyl-1,3-oxazol-5-yl)-4H-1,2,4-triazol-3-yl]sulfanyl}propyl)morpholine] | – | 6.72
